Measured values: patent US20240174690A1, “ANNULATED 2-AMINO-3-CYANO THIOPHENES AND DERIVATIVES FOR THE TREATMENT OF CANCER” (BOEHRINGER INGELHEIM INTERNATIONAL GMBH, priority 2021, published 2024)
Where two headings read alike, the source gives them in different places.

Key:
[1] = test system: KRAS G12C-dependent Ba/F3 cells; experiment: Ba/F3 proliferation assay, KRAS G12C; type: cell-based; conditions: Mus musculus, BaF3, 72 h, AlamarBlue
In short: (§1)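 Proliferation of mutant-KRAS-driven Ba/F3 cells cultured without IL-3 is followed with AlamarBlue after compound addition. Curves are fitted from duplicate wells.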

[2] = test system: NCI-H358 cells; experiment: NCI-H358 CTG proliferation assay (120 h) (NSCLC, G12C); type: cell-based, human; conditions: Homo sapiens
In short: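 IC50 values derive from four-parameter nonlinear regression of CellTiter-Glo viability (RLU relative to DMSO wells) after 120 h of exposure. Cells were plated in RPMI-1640 + 10% FCS at 2000 per well (assay 1) or 200 per well (assay 2). Untreated cells were measured at compound addition as T0.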

[3] = test system: KRAS G12V-dependent Ba/F3 cells; experiment: Ba/F3 proliferation assay, KRAS G12V; type: cell-based; conditions: Mus musculus, BaF3, 72 h, AlamarBlue;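 further: proliferation IC50 in KRAS G12V-dependent Ba/F3 cells read by AlamarBlue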
In short: as §1

[4] = test system: KRAS G12D-dependent Ba/F3 cells; experiment: Ba/F3 proliferation assay, KRAS G12D; type: cell-based; conditions: Mus musculus, BaF3, 72 h, AlamarBlue
In short: as §1

[5] = test system: LOVO cells; experiment: LOVO CTG proliferation assay (120 h) (CRC, G13D); type: cell-based; conditions: Homo sapiens, CTG 120 h
Method: LOVO CTG Proliferation Assay (120 h) (CRC, G13D)
LOVO cells (ATCC CCL-229) are dispensed into 384-well plates, flat and clear bottom (Greiner, PNr. 781091) at a density of 1000 cells per well in 60 μL DMEM (Sigma D6429)+10% Fetal Calf Serum (HyClone, PNr.: SH30084.03) and incubated at 37° C. in a CO2 incubator overnight. The next day, compounds (10 mM stock in DMSO) are added with the ECHO acoustic liquid handler system (Beckman Coulter), including DMSO controls. Plates are incubated for 120 h, and cell viability is measured using CellTiter-Glo luminescent cell viability reagent (Promega product code G7570). Viability (stated as percent of control) is defined as relative luminescence units RLU of each well divided by the RLU of cells in DMSO controls. IC50 values are determined from viability measurements by non-linear regression using a four-parameter model.

[6] = Metabolic (microsomal) stability assay, human liver microsomes (HLM); type: in vitro ADME; conditions: predicted clearance as percent of liver blood flow, 1 μM
In short: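 LC-MS/MS tracked parent disappearance at 0, 5, 15, 30 and 60 min in NADPH-initiated incubations with 1 mg/mL human microsomal protein and 1 μM compound at 37°C, pH 7.5. First-order fits gave intrinsic clearance, which was scaled up and reported as % QH. NADPH-free controls were also run.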

[7] = target: CYP3A4 (Homo sapiens (Human), UniProt P08684); experiment: Mechanism based inhibition of CYP3A4 assay (MBI 3A4); type: in vitro ADME; conditions: hydroxy-midazolam formation after 30 min vs 0 min preincubation, 25 uM, human liver microsomes
Chain of CYP3A4 (P08684 whole entry): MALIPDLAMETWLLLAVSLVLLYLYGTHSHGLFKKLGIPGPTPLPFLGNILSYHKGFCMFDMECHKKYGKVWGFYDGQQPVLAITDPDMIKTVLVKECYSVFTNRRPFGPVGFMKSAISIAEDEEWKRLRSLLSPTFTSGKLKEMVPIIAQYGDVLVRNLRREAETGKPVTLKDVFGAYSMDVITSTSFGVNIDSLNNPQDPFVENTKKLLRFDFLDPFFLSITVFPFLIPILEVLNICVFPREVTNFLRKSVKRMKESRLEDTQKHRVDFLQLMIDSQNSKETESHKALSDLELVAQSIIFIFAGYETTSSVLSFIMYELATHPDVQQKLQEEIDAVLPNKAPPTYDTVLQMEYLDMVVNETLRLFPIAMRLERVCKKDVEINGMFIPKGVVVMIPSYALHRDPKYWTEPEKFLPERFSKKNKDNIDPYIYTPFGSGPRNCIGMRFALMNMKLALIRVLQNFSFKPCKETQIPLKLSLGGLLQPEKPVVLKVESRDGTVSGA
Method: After preincubation, the incubate is diluted 1:10 and the substrate midazolam is added for the main incubation (15 min). The main incubation is quenched with acetonitrile and the formation of hydroxy-midazolam is quantified via LC/MS-MS. The formation of hydroxy-midazolam from the 30 min preincubation relative to the formation from the 0 min preincubation is used as a readout. Values of less than 100% mean that the substrate midazolam is metabolized to a lower extent upon 30 min preincubation compared to 0 min preincubation. In general low effects upon 30 min preincubation are desired (corresponding to values close to 100%/not different to the values determined with water control).

[8] = assay 2, CTG, read-out: H358 (assay 2) IC50

Structure (SMILES)	IC50 [1] [nM]	IC50 [2, 8] [nM]	IC50 [3] [nM]	IC50 [4] [nM]	IC50 [5] [nM]	HLM QH [6] [%]	MBI 3A4 [7] [%]	IC50 ([2]; assay 1, CTG, read-out: H358 (assay 1) IC50) [nM]
C[C@H](Oc1cc(N2CCC(C#N)C2)nc(-c2noc3c2CCC[C@@]32CCCc3sc(N)c(C#N)c32)n1)[C@@H]1CCCN1C (stereo partly shown) [II-99]	28	1340	35	83	286	<24	78	
C[C@H](Oc1cc(N2CCNC3(CC3)C2)nc(-c2onc3c2CCC[C@@]32CCCc3sc(N)c(C#N)c32)n1)[C@@H]1CCCN1C [I-5]	124	852	253	3	1640	<24	34	813
COCc1cn(-c2cc(O[C@@H](C)[C@@H]3CCCN3C)nc(-c3noc4c3CCC[C@@]43CCCc4sc(N)c(C#N)c43)n2)nn1 [II-121]	13	268	11	77	129	39	56	
COC(=O)c1ccc(-c2cc(O[C@@H](C)[C@@H]3CCCN3C)nc(-c3noc4c3CCC[C@@]43CCCc4sc(N)c(C#N)c43)n2)o1 [II-114]	16	123	7	99	142	34	85	
C[C@H](Oc1cc(N2Cc3cnn(C)c3C2)nc(-c2noc3c2CCC[C@@]32CCCc3sc(N)c(C#N)c32)n1)[C@@H]1CCCN1C [II-63]	114	66	49	266	640	<24	74	
C[C@H](Oc1cc(-c2cnn(C)c2)nc(-c2noc3c2CCC[C@@]32CCCc3sc(N)c(C#N)c32)n1)[C@@H]1CCCN1C [II-74]	50	1680	11	81	319	<24	81	

Continued, values first:

IC50 [1] [nM]	IC50 [2, 8] [nM]	IC50 [3] [nM]	IC50 [4] [nM]	IC50 [5] [nM]	HLM QH [6] [%]	MBI 3A4 [7] [%]	IC50 ([2]; assay 1, CTG, read-out: H358 (assay 1) IC50) [nM]	Structure (SMILES)
7	98	6	36	58	<24	77		C[C@H](Oc1cc(-c2ccn(C[C@@H](C)O)n2)nc(-c2noc3c2CCC[C@@]32CCCc3sc(N)c(C#N)c32)n1)[C@@H]1CCCN1C [II-117]
8	42	6	51	152	<24	52		C[C@H](Oc1cc(-n2ccc(-c3ccccn3)n2)nc(-c2noc3c2CCC[C@@]32CCCc3sc(N)c(C#N)c32)n1)[C@@H]1CCCN1C [II-119]
58	242	26	198	683	<24	76		C[C@H](Oc1cc(-c2cccc(CO)c2)nc(-c2noc3c2CCC[C@@]32CCCc3sc(N)c(C#N)c32)n1)[C@@H]1CCCN1C [II-97]
15	439	24	93	72	28	64		C[C@H](Oc1cc(-n2cc(-c3cccnc3)nn2)nc(-c2noc3c2CCC[C@@]32CCCc3sc(N)c(C#N)c32)n1)[C@@H]1CCCN1C [II-123]
28	209	8	41	50	<24	79		C[C@H](Oc1cc(-c2cc[nH]n2)nc(-c2noc3c2CCC[C@@]32CCCc3sc(N)c(C#N)c32)n1)[C@@H]1CCCN1C [II-71]
57	220	18	199	453	<24	73		C[C@H](Oc1cc(-c2ccn(-c3ccccc3)n2)nc(-c2noc3c2CCC[C@@]32CCCc3sc(N)c(C#N)c32)n1)[C@@H]1CCCN1C [II-89]
